Reference: PMC9945734 (BMC Medicine, 2023)
Where “and” joins values, the source holds several entries; their conditions need not be identical. Equal entries are not always repeated.

System: PC-3-KQ and PC-3-KR cells
Experiment: RNA-sequencing and differential gene expression
Type: cell-based, human
Design: CEP19 tpm_KQ_NTZ / CCNA1 tpm_KQ_NTZ / BTN3A3 tpm_KQ_NTZ / CAPSL tpm_KQ_NTZ / CELF3 tpm_KQ_NTZ / C5orf63 tpm_KQ_NTZ / tpm MSMP / tpm MYH7B / tpm CACNG8 / CNTNAP3B tpm_KQ_NTZ / IL21R tpm_KQ_NTZ / CYP8B1 tpm_KQ_NTZ / C2orf78 tpm_KQ_NTZ / CALB1 tpm_KQ_NTZ / COL4A3 tpm_KQ_NTZ / CFB tpm_KQ_NTZ / PFKFB1 tpm_KQ_NTZ / BTBD11 tpm_KQ_NTZ: scale not given here
[1] = PC-3-KQ cells with NTZ, RNA-Seq, replicates 1-3, listed as NTZ
[2] = PC-3-KQ cells with NTZ, RNA-Seq, replicates NTZ1-3, listed as NTZ

## CC(=O)Oc1ccccc1C(=O)Nc1ncc([N+](=O)[O-])s1 [Nitazoxanide]
5 μM, 48 h
  reversed genes that were downregulated by KLF5^K369Q: 114 genes
  reversed genes that were upregulated by KLF5^K369Q: 127 genes
5 μM, 48 h, of 2836 differentially expressed genes
  differentially expressed genes whose KLF5^K369Q-modulated expression patterns were reversed: 241 genes
[1]
  BTBD11 tpm_KQ_NTZ: 0.02343 (2×) and -0.3135
  BTN3A3 tpm_KQ_NTZ: 0.1048 and 0.06849 and 0.4183
  C2orf78 tpm_KQ_NTZ: -0.1653 (2×) and -0.2557
  C5orf63 tpm_KQ_NTZ: -1.246 and -0.6828 (2×)
  CALB1 tpm_KQ_NTZ: -0.5505 and -0.5318 and -0.6014
  CAPSL tpm_KQ_NTZ: 0.1399 and 0.07957 and 0.02817
  CCNA1 tpm_KQ_NTZ: 0.2896 and 0.0474 and -0.0329
  CELF3 tpm_KQ_NTZ: -0.6626 and -0.09641 and -1.398
  CEP19 tpm_KQ_NTZ: -0.2178 and -0.1674 and -0.2603
  CFB tpm_KQ_NTZ: 1.072 and 0.8732 and 1.006
  CNTNAP3B tpm_KQ_NTZ: -1.003 and -0.7486 and -1.333
  COL4A3 tpm_KQ_NTZ: 0.8606 and -0.008515 and 0.09381
  CSF1R tpm_KQ_NTZ: -0.4278 and 0.5782 and -0.287
  CSF3 tpm_KQ_NTZ: -0.1666 and -0.05545 and -0.03443
  CYP8B1 tpm_KQ_NTZ: 0.5351 and -0.06455 and 0.239
  CYSTM1 tpm_KQ_NTZ: 0.5286 and 0.6762 and 0.7083
  DEPTOR tpm_KQ_NTZ: -0.1625 and 0.109 and -0.5598
  DISP1 tpm_KQ_NTZ: 0.9822 and -0.1345 and 0.01324
  DMC1 tpm_KQ_NTZ: 0.2859 and -0.2731 and -0.5992
  EFCAB6 tpm_KQ_NTZ: -0.1794 and -0.1071 (2×)
  ESPN tpm_KQ_NTZ: 0.1813 and 0.02389 and 0.09131
  FA2H tpm_KQ_NTZ: 0.4488 and 0.5616 and 0.5267
  FAM43A tpm_KQ_NTZ: 0.03072 and -0.121 and -0.09259
  FAM83D tpm_KQ_NTZ: -0.5519 and -0.6015 and -0.7989
  FAM178B tpm_KQ_NTZ: 0.08123 and 0.3901 and 0.3146
  FANCI tpm_KQ_NTZ: -0.4967 and -0.5797 and -1.118
  FANCL tpm_KQ_NTZ: -0.04507 and -0.1672 and -0.6878
  FIBCD1 tpm_KQ_NTZ: 0.8945 (2×) and 0.4936
  FLI1 tpm_KQ_NTZ: 0.163 and 0.09153 and 0.3476
  FLRT1 tpm_KQ_NTZ: 0.02501 and 0.1658 and 0.1094
  FOXI1 tpm_KQ_NTZ: -0.2315 and -0.3686 and -0.4151
  FOXP3 tpm_KQ_NTZ: -0.3022 and -0.9252 and -0.8607
  FRY tpm_KQ_NTZ: 0.3424 and 1.196 and 0.3898
  FUT3 tpm_KQ_NTZ: 0.2065 and 0.1078 and 0.1213
  FZD4 tpm_KQ_NTZ: -0.8248 and -0.9863 and -1.191
  GBX2 tpm_KQ_NTZ: 0.2922 and 0.1832 and -0.01058
  GCNT3 tpm_KQ_NTZ: 0.5624 and 1.46 and 1.425
  GDPD3 tpm_KQ_NTZ: 0.1549 and 0.8212 and 1.086
  GPR19 tpm_KQ_NTZ: -0.4052 and -1.088 and -0.1444
  H3C1 tpm_KQ_NTZ: -0.4909 and -0.7381 and -0.1713
  HAS3 tpm_KQ_NTZ: -0.7244 and -1.045 and -1.209
  HSD3B1 tpm_KQ_NTZ: 0.4147 and -0.0829 and 0.06266
  HSPB8 tpm_KQ_NTZ: 1.202 and 1.163 and 1.373
  IFITM10 tpm_KQ_NTZ: 0.594 and 0.6249 and 1.26
  IGF2BP1 tpm_KQ_NTZ: -0.6156 and 0.2139 and -0.1353
  IGFBP4 tpm_KQ_NTZ: -0.9714 and -1.052 and -1.107
  IGSF23 tpm_KQ_NTZ: 0.2138 and -0.14 and 0.153
  IL1RN tpm_KQ_NTZ: 0.4172 and 0.5103 and 0.3837
  IL21R tpm_KQ_NTZ: 0.1341 and 0.3531 and -0.6262
  IL32 tpm_KQ_NTZ: 0.1915 and 0.128 and 0.2784
  IL36RN tpm_KQ_NTZ: 0.2015 and -0.02405 and -0.08881
  KDELR2 tpm_KQ_NTZ: 0.386 and 0.3336 and 0.3028
  KIAA0319 tpm_KQ_NTZ: 0.8897 and 0.7646 and 0.5228
  KLK9 tpm_KQ_NTZ: -0.2259 and -0.6416 and -0.6693
  KRT17 tpm_KQ_NTZ: -0.1797 and -0.2377 and -0.2552
  LGALS12 tpm_KQ_NTZ: -0.7737 and -0.7092 and -1.317
  LILRB3 tpm_KQ_NTZ: -0.849 and 0.2071 and -0.3616
  LOC105373989 tpm_KQ_NTZ: 0.1747 and 0.1405 and -0.01628
  LOC107985532 tpm_KQ_NTZ: -0.4716 and -1.399 and -0.5849
  LRRK1 tpm_KQ_NTZ: 0.2201 and 0.2241 and -0.1686
  LTB tpm_KQ_NTZ: 0.298 and 0.1911 and 0.1215
  LY6K tpm_KQ_NTZ: 0.361 and 0.2663 and 0.3215
  MAP2 tpm_KQ_NTZ: 1.038 and 0.7956 and 0.3906
  MCM4 tpm_KQ_NTZ: -0.8715 and -0.9161 and -1.036
  METRNL tpm_KQ_NTZ: -0.141 and -0.421 and -0.3102
  MFSD2A tpm_KQ_NTZ: 0.8546 and 0.3607 and 0.5375
  MMP9 tpm_KQ_NTZ: 0.4129 and 0.2062 and 0.3482
  MNX1 tpm_KQ_NTZ: 0.2275 and -0.9 and 0.1118
  MROH8 tpm_KQ_NTZ: -1.87 and -0.2315 and 0.3664
  MVP tpm_KQ_NTZ: 0.5977 and 0.4827 and 0.3544
  MYBL2 tpm_KQ_NTZ: -0.1727 and -0.165 and -0.155
  NAV1 tpm_KQ_NTZ: 0.9647 (2×) and 0.5494
  NECTIN4 tpm_KQ_NTZ: 1.229 and 1.239 and 1.198
  NKD1 tpm_KQ_NTZ: 0.09084 and 0.3652 and -0.1886
  NLRC5 tpm_KQ_NTZ: 0.9096 and 0.9955 and 0.3927
  NR4A2 tpm_KQ_NTZ: -0.3921 and 0.001744 and -0.3514
  NRK tpm_KQ_NTZ: -0.02829 and -0.09407 and -0.0544
  NT5E tpm_KQ_NTZ: -0.3117 and -0.2802 and -0.3345
  NTF4 tpm_KQ_NTZ: -0.8704 and -0.4013 and -0.4312
  PADI3 tpm_KQ_NTZ: -0.6957 and -0.9817 and -0.9686
  PCDH18 tpm_KQ_NTZ: -1.061 and -0.1951 and -0.6677
  PDGFA tpm_KQ_NTZ: 0.404 and 0.3967 and 0.4405
  PDZK1 tpm_KQ_NTZ: -0.2414 and 0.3327 and -0.5574
  PEG10 tpm_KQ_NTZ: -0.4908 and -0.6617 and -1.075
  PFKFB1 tpm_KQ_NTZ: 0.1063 and -0.5815 and -0.9802
  PGAM4 tpm_KQ_NTZ: -1.18 and 0.2721 and 0.1017
  PHACTR3 tpm_KQ_NTZ: -0.9821 and -1.045 and -0.9733
  PHOSPHO2 tpm_KQ_NTZ: -0.6941 and -0.4899 and -0.4437
  PIANP tpm_KQ_NTZ: -0.9238 and -0.4554 and -0.5206
  PITPNM3 tpm_KQ_NTZ: 0.8488 and 0.3478 and 1.199
  PKIA tpm_KQ_NTZ: -0.2506 and -0.236 and -0.2863
  PRKAR1B tpm_KQ_NTZ: 0.4324 and 0.4514 and 0.7549
  PRKDC tpm_KQ_NTZ: 0.0232 and -0.08402 and -0.5624
  PROS1 tpm_KQ_NTZ: 0.5403 and 0.6849 and 0.6327
  PRR16 tpm_KQ_NTZ: -0.9713 and 0.1931 and -0.1646
  PRR29 tpm_KQ_NTZ: -0.06306 and -0.3085 and -0.2669
  PTPRR tpm_KQ_NTZ: 0.6595 and 1.295 and 0.9528
  RBL1 tpm_KQ_NTZ: -0.1965 and -0.4796 and -0.579
  RLN1 tpm_KQ_NTZ: -0.3286 and -1.073 and -1.143
  RMDN2 tpm_KQ_NTZ: 0.2344 and 0.5874 and -0.2937
  RND1 tpm_KQ_NTZ: 0.2005 and 0.3255 and 0.6944
  S100A6 tpm_KQ_NTZ: -0.1375 and -0.00541 and 0.1164
  SCG2 tpm_KQ_NTZ: 0.5158 and -0.04635 and -1.114
  SDCBP2 tpm_KQ_NTZ: 0.1173 and 0.1996 and 0.2731
  SERINC5 tpm_KQ_NTZ: 0.7977 and 0.7386 and 0.3271
  SERPINA3 tpm_KQ_NTZ: 0.1383 and 0.1648 and 0.1316
  SERPINB4 tpm_KQ_NTZ: -0.3324 and -0.2205 and -0.9332
  SERPIND1 tpm_KQ_NTZ: -1.101 and -0.7105 and -1.316
  SGK1 tpm_KQ_NTZ: -0.7129 and -0.3809 and -0.4182
  SHISA3 tpm_KQ_NTZ: -0.1615 and -0.01424 and -0.03964
  SLC1A1 tpm_KQ_NTZ: 0.007137 and 0.6447 and 0.4297
  SLC26A9 tpm_KQ_NTZ: -0.2744 and 0.2725 and -0.927
  SLC41A2 tpm_KQ_NTZ: 0.4534 and 0.4303 and 0.4488
  SLC44A4 tpm_KQ_NTZ: 0.5521 and 0.8689 and 0.6934
  SLC45A2 tpm_KQ_NTZ: 0.257 and 0.07385 and 0.3908
  SLITRK5 tpm_KQ_NTZ: 0.1465 and 0.3195 and -0.4377
  SMCO4 tpm_KQ_NTZ: 0.1432 and -0.08242 and 0.08549
  SPOCK2 tpm_KQ_NTZ: 0.7174 and 0.4246 and 1.38
  STK32A tpm_KQ_NTZ: -0.2617 and 0.04669 and 0.4294
  SYN3 tpm_KQ_NTZ: 0.4729 and 0.3702 and 0.1862
  TENM4 tpm_KQ_NTZ: 0.2992 and -0.3092 and -0.102
  TIMM8A tpm_KQ_NTZ: -0.8837 and -0.8279 and -0.9653
  TJP3 tpm_KQ_NTZ: 0.01147 and 0.1369 and 0.1215
  TMEM140 tpm_KQ_NTZ: 0.2484 and 0.4158 and -0.0465
  TMEM269 tpm_KQ_NTZ: 0.406 and 0.06998 and -0.4941
  TMOD1 tpm_KQ_NTZ: 1.342 and 1.235 and 0.499
  TMPRSS2 tpm_KQ_NTZ: 0.007165 (2×) and 0.0842
  TNFAIP8L2-SCNM1 tpm_KQ_NTZ: -0.5467 and -1.562 and 0.4492
  TNFRSF11B tpm_KQ_NTZ: -0.9649 and -1.078 and -1.224
  TSPAN18 tpm_KQ_NTZ: 0.09114 and -0.09342 and 0.05473
  TTC9 tpm_KQ_NTZ: 0.2094 and 0.2356 and 0.6409
  TTC30A tpm_KQ_NTZ: -0.04558 and -0.08793 and -0.6072
  TTC30B tpm_KQ_NTZ: -0.2207 and -0.5797 and -0.3178
  UST tpm_KQ_NTZ: 0.2599 and 0.1194 and -0.01732
  WHRN tpm_KQ_NTZ: 0.9053 and 0.8473 and 0.7758
  WNT4 tpm_KQ_NTZ: 0.9814 and 1.222 and 1.387
  WNT9A tpm_KQ_NTZ: 0.12 and -0.05504 and -0.01608
  ZFPM2 tpm_KQ_NTZ: -0.1773 and -0.1147 and -0.2406
  ZNF596 tpm_KQ_NTZ: -1.141 and -0.2632 and -0.6635
[2]
  tpm ABAT: 1.268 and 0.9682 and 0.237
  tpm ADIRF: -0.4477 and -0.5226 and -0.3352
  tpm ANKRD63: 0.1535 and -0.6652 and 0.3857
  tpm ANXA8: 0.9428 and 0.3454 and -1.083
  tpm ANXA8L1: -0.298 and -0.4234 and -0.7464
  tpm ARG2: 1.137 and 1.333 and 1.316
  tpm ATP2A3: 0.8036 (2×) and -0.2131
  tpm C11orf65: -1.057 and -0.2742 and -0.729
  tpm CACNG8: -0.5252 and -0.3048 and -0.9129
  tpm CAPN12: 0.129 and 0.1138 (2×)
  tpm CD14: -1.105 and -0.7008
  tpm CGB5: 0.9167 and 0.2487 and 0.1354
  tpm CHPF2: 1.06 and 0.6508 and 0.6663
  tpm COL4A4: 0.03123 and -0.5371 and -0.2214
  tpm COL4A6: -0.1711 and -0.6593 and -0.6324
  tpm CXCL5: -0.4877 and -0.4195 and -0.4771
  tpm CYP1B1: 0.6593 and 0.4159 and 0.0748
  tpm CYP2E1: 0.3931 and 0.8042 and 0.2474
